{
  "source": "PubChem BioAssay AID1996",
  "data": [
    {"conditions": "buffer; pH 7.4; 200.0 µM", "units": {"solubility kinetic": "µg/mL"}, "values": [
      {"smiles": "CC(=O)Nc1cc2nc(C)n(Cc3ccc([N+](=O)[O-])cc3)c2nc1C", "solubility kinetic": "> 50.9"},
      {"smiles": "CCC(C)[C@H](NC(=O)NCCC1=CCCCC1)C(=O)O", "note": "(stereo not given in full)", "solubility kinetic": 38.2},
      {"smiles": "CC(NC(=O)c1ccc(F)cc1)C1CC2CCC1C2", "note": "(stereo not given)", "solubility kinetic": 6.9},
      {"smiles": "Cc1cc(C)cc(NC(=S)N2CC(C)OC(C)C2)c1", "note": "(stereo not given)", "solubility kinetic": 35.1},
      {"smiles": "O=C(O)CCCC(=O)Nc1ccccc1Oc1ccccc1", "solubility kinetic": "> 44.9"},
      {"smiles": "C/C(=N/O)c1ccc2ccc3ccccc3c2c1", "solubility kinetic": 0.6},
      {"smiles": "O=C(CSc1nnc(Nc2ccccc2F)s1)NCC1CCCO1", "note": "(stereo not given)", "solubility kinetic": "> 55.3"},
      {"smiles": "CN(C(=O)C1CCC1C(=O)O)c1nc(-c2ccc(Cl)s2)cs1", "note": "(stereo not given)", "solubility kinetic": 42.6},
      {"smiles": "O=C(NCCNC(=O)c1ccccn1)c1ccc(F)cc1", "solubility kinetic": "> 43.1"},
      {"smiles": "C/C(=N/NC(=O)CN1CCN(Cc2ccccc2Cl)CC1)c1cccnc1", "solubility kinetic": "> 57.9"},
      {"smiles": "CCN(CC)CCCNC(=S)Nc1ccc(Br)cc1", "solubility kinetic": "> 51.6"},
      {"smiles": "COc1ccccc1NCCC(=O)OCC(=O)Nc1ccccc1F", "solubility kinetic": "> 52"},
      {"smiles": "COCCN(C(=S)Nc1ccc(C)cc1)C(C)c1ccco1", "note": "(stereo not given)", "solubility kinetic": 3.4},
      {"smiles": "Fc1ccc(CNC(=S)NCc2cccc(Cl)c2)cc1", "solubility kinetic": 27.2},
      {"smiles": "CC(C)(C)OC(=O)N1CCC(CNC(=O)Nc2ccccc2)CC1", "solubility kinetic": "> 50"},
      {"smiles": "COc1cc2c(C(=O)NCCN(C)C)cn(CC(C)C)c(=O)c2cc1OC", "solubility kinetic": "> 56.3"},
      {"smiles": "Cc1ccc(NC(=O)CSc2ncccn2)cc1S(=O)(=O)N1CCOCC1", "solubility kinetic": "> 61.3"},
      {"smiles": "CC(=O)c1c(C)[nH]c(C(=O)Nc2ccc(Cl)cc2)c1C", "solubility kinetic": 2.2},
      {"smiles": "CC1CCCN(C(=O)CNS(=O)(=O)c2cccs2)C1", "note": "(stereo not given)", "solubility kinetic": "> 45.4"},
      {"smiles": "Fc1ccc(-n2c(-c3ccco3)n[nH]c2=S)cc1", "solubility kinetic": "> 39.2"},
      {"smiles": "CC(=O)c1sc(NC(=O)c2ccc(Cl)cc2)nc1C", "solubility kinetic": 0.5},
      {"smiles": "Fc1ccc(CNc2ccc(N3CCN(Cc4ccccc4)CC3)cc2)cc1", "solubility kinetic": 14.6},
      {"smiles": "Cc1cccc(C(=O)NC(=S)NCc2ccccc2)c1", "solubility kinetic": 2.4},
      {"smiles": "COc1ccc(CNC(=O)CCC(=O)Nc2cccnc2)cc1", "solubility kinetic": 42.3},
      {"smiles": "O=C(CNC(=O)c1ccc(=O)[nH]c1)Nc1ccc(F)c(F)c1", "solubility kinetic": "> 46.1"},
      {"smiles": "COc1ccc(CNc2ccc3c(c2)ncn3C)cc1OC", "solubility kinetic": 29.7},
      {"smiles": "COCCN(C(=S)Nc1cccc(C)c1C)C(C)c1ccco1", "note": "(stereo not given)", "solubility kinetic": 40.1},
      {"smiles": "COc1ccc(C(=O)NCc2ccc(N3CCN(C)CC3)cc2)cc1", "solubility kinetic": "> 50.9"},
      {"smiles": "Cc1ccc(C(C)C)cc1OCC(=O)NC1CCCCCCC1", "solubility kinetic": "< 0.7"},
      {"smiles": "COc1cccc(C2C([N+](=O)[O-])=C(N)Oc3cc(C)oc(=O)c32)c1", "note": "(stereo not given)", "solubility kinetic": "> 49.5"},
      {"smiles": "O=C(NC1CCCc2ccccc21)C1CCCC1", "note": "(stereo not given)", "solubility kinetic": 27.3},
      {"smiles": "CC1CCN(C(=O)COC(=O)/C=C/c2ccco2)CC1", "solubility kinetic": "> 41.6"},
      {"smiles": "Cc1cnc(C(=O)NCCc2ccc(Cl)cc2)cn1", "solubility kinetic": 36},
      {"smiles": "O=C(NCc1ccco1)C(=O)c1cn(CC(=O)N2CCCC2)c2ccccc12", "solubility kinetic": "> 56.9"},
      {"smiles": "CN1CCN(S(=O)(=O)Cc2ccc(Cl)cc2)CC1", "solubility kinetic": 33.8},
      {"smiles": "O=C(NC1CC1)C1CC(=O)N(c2ccc(F)cc2)C1", "note": "(stereo not given)", "solubility kinetic": 37.6},
      {"smiles": "CN1C(C(=O)Nc2ccccn2)=C(O)c2sc(Cl)cc2S1(=O)=O", "solubility kinetic": 15.5},
      {"smiles": "O=C(COC(=O)c1cccc([N+](=O)[O-])c1)NCc1cccs1", "solubility kinetic": 36},
      {"smiles": "CCOn1c(=O)c(-c2ccc(C)cc2)[n+]([O-])c2ccccc21", "solubility kinetic": 33.5},
      {"smiles": "COc1ccc(NC(=O)COC(=O)CCc2nc3ccccc3c(=O)[nH]2)cc1Cl", "solubility kinetic": 59.7},
      {"smiles": "N#Cc1ccccc1OCC(=O)C1CC1", "solubility kinetic": 28.4},
      {"smiles": "CN(c1ccc(F)cc1)S(=O)(=O)c1ccc(Cl)c(C(=O)NCc2ccco2)c1", "solubility kinetic": 34.9},
      {"smiles": "CCOc1ccc2[nH]c3c(NCCOC)ncnc3c2c1", "solubility kinetic": "> 42.9"},
      {"smiles": "O=C(O)c1nccnc1C(=O)NCc1csc2ccc(Cl)cc12", "solubility kinetic": 46.4},
      {"smiles": "C=CCn1cccc(C(=O)Nc2ccc(Cl)cc2)c1=O", "solubility kinetic": 3.4},
      {"smiles": "COC(=O)c1scc(C)c1S(=O)(=O)Nc1ccc(C)cc1", "solubility kinetic": 6.5},
      {"smiles": "Cc1ccc(C(C)NC(=O)C2CCCC2)c(C)c1", "note": "(stereo not given)", "solubility kinetic": 34.2},
      {"smiles": "NC(=S)c1ncc(C(F)(F)F)cc1Cl", "solubility kinetic": 30.4},
      {"smiles": "O=C(/C=C/c1c(Cl)cccc1Cl)NCCCn1ccnc1", "solubility kinetic": 46.1},
      {"smiles": "COc1cccc(NC(=O)CN(C)CC(=O)NCC(=O)Nc2ccc(F)cc2)c1", "solubility kinetic": "> 60.4"},
      {"smiles": "CCC(=O)c1ccc(OCC(=O)N2CCN(CC(=O)Nc3ccccc3C(F)(F)F)CC2)cc1", "solubility kinetic": "> 71.6"},
      {"smiles": "O=C(c1ccccc1)N1CCC2(CC1)NCCc1[nH]cnc12", "solubility kinetic": 42.7},
      {"smiles": "CCOc1ccc2nc(NC(=O)C3CCCO3)sc2c1", "note": "(stereo not given)", "solubility kinetic": "> 43.9"},
      {"smiles": "COc1ccc(C(=O)Nc2ccccc2C(=O)NCc2ccco2)cc1", "solubility kinetic": 2.1},
      {"smiles": "CCN1CCN(CC(=O)c2ccc(C)cc2)CC1", "solubility kinetic": 32.4},
      {"smiles": "NC(=O)c1cccnc1OCC(F)(F)F", "solubility kinetic": "> 33"},
      {"smiles": "N#Cc1ccc(-c2nc3cc(Cl)ccc3c(=O)n2O)cc1", "solubility kinetic": 44},
      {"smiles": "Cc1cc(C)c2nc(Cl)c(Cl)nc2c1", "solubility kinetic": 2.7},
      {"smiles": "Cc1ccc(NC(=O)CN2C(=O)NC3(CCCc4ccccc43)C2=O)c([N+](=O)[O-])c1", "note": "(stereo not given)", "solubility kinetic": 36.5},
      {"smiles": "CCOc1cc(/C=C2/C(=O)ON=C2C)cc(Br)c1O", "solubility kinetic": "> 48.9"},
      {"smiles": "O=[N+]([O-])c1ccc(NCc2ccncc2)cc1", "solubility kinetic": "> 34.4"},
      {"smiles": "Cc1cc(NC(=O)c2cc(-c3cccc(OCC(C)C)c3)nc3ccccc23)no1", "solubility kinetic": "< 0.3"},
      {"smiles": "Cc1ccnc(N/C=C/C(=O)c2ccc(Br)cc2)c1", "solubility kinetic": "< 0.3"},
      {"smiles": "COc1ccc(C(=O)CN2C(=O)NC3(CCc4ccccc43)C2=O)cc1", "note": "(stereo not given)", "solubility kinetic": 25.3},
      {"smiles": "Cc1ccc(C2=NN(CC(=O)NCCC(C)C)C(=O)CC2)cc1", "solubility kinetic": "> 47.3"},
      {"smiles": "Cc1ccc(S(=O)(=O)N(C)C)cc1NC(=O)c1cccs1", "solubility kinetic": 39.8},
      {"smiles": "NS(=O)(=O)c1ccc(CCNc2ccc(C(F)(F)F)cn2)cc1", "solubility kinetic": 48.1},
      {"smiles": "O=C(CS(=O)(=O)c1ccccc1)Nc1ccc(Cl)cn1", "solubility kinetic": "> 46.6"},
      {"smiles": "COc1cc(C(=O)Nc2nnc(C)s2)c([N+](=O)[O-])cc1OC", "solubility kinetic": "> 48.6"},
      {"smiles": "COc1ccc(CN(C(C)=O)c2ccccc2C(=O)O)cc1", "solubility kinetic": 43.7},
      {"smiles": "CCc1cc(Cl)c(OC)c(C(=O)NC[C@@H]2CCCN2CC)c1O.Cl", "solubility kinetic": "> 56.6"},
      {"smiles": "NC(=S)Nc1ccc2c(c1)OCO2", "solubility kinetic": "> 29.4"},
      {"smiles": "CCC1CCCCN1CC(=O)c1c(C)[nH]c2ccc(OC)cc12", "note": "(stereo not given)", "solubility kinetic": 35},
      {"smiles": "COC(=O)c1ccc(C(=S)NCC2(N(C)C)CCCCC2)cc1", "solubility kinetic": 45.6},
      {"smiles": "Cc1ccc(S(=O)(=O)NC(=O)Nc2cc(C(C)(C)C)on2)cc1", "solubility kinetic": "> 50.6"},
      {"smiles": "CC1CCC2(CC1)NC(=O)N(CC(=O)N1c3ccccc3CC1C)C2=O", "note": "(stereo not given)", "solubility kinetic": 5.2},
      {"smiles": "CCOc1ccc(N2C(=O)C3CCCN3C2=S)cc1", "note": "(stereo not given)", "solubility kinetic": "> 41.5"},
      {"smiles": "CC(=O)Nc1nc2c(C)cc(NC(=O)C3CCCCC3)cc2s1", "solubility kinetic": 0.7},
      {"smiles": "C=CCn1c(=S)sc2c(=O)[nH]c(C)nc21", "solubility kinetic": "> 35.9"},
      {"smiles": "COc1ccccc1N(C)S(=O)(=O)c1ccc(C(=O)Nc2cccc(Br)c2)cc1", "solubility kinetic": 3},
      {"smiles": "O=C(Cc1ccccc1F)Nc1nc2ccccc2[nH]1", "solubility kinetic": 2.7},
      {"smiles": "O=C(Nc1cccnc1)c1cccc(S(=O)(=O)N2CCCC2)c1", "solubility kinetic": "> 49.7"},
      {"smiles": "CCCC1/C(=N/O)CC(c2ccccc2)NC1c1ccccc1", "note": "(stereo not given)", "solubility kinetic": "< 0.3"},
      {"smiles": "CC(CN1CCCCC1)OC(=O)/C=C/c1ccccc1.Cl", "note": "(stereo not given)", "solubility kinetic": "> 46.5"},
      {"smiles": "Cc1ccc(C(=O)N2C3=C(CCCC3)C(=O)NC23CCCCC3)cc1", "solubility kinetic": 2.1}
    ]}
  ]
}
